According to patent US6303612A, “Derivatives of hydroxyphenylsulfanylbenzoic and hydroxphenylsulfanylarylacetic acids” (Leciva, A.S., priority 1998, dated 2001):
pIC50: −log10 of the molar value. Converted amounts (≈) assume the structure as drawn. Where a name gives a salt, the structure may show the parent alone. Read-outs that look alike come from different tables or passages of the source.

Experiments:
LTB4 receptor = LTB4 receptor (Cavia porcellus, UniProt H0VYV8); experiment: LTB4 receptor binding study; details: 3H-LTB4, guinea-pig spleen membranes; for inhibition at 20 µM: read-out: Inh. of LTB4 rec. binding, %; for pIC50: read-out: Inh. of LTB4 rec. binding, IC50
Experimental: LTB4 Receptor Binding Study
A slightly modified method of Cheng and coworkers (Cheng J. B. et al.: J. Pharm. Expl. Ther. 236, 126 (1986)) was used. The membrane fraction was prepared from male guinea-pig spleen; 2 mg of membranes were incubated with 0.3 nM ^3 H-LTB4 at 25° C. for 30 min in 100 μl of the incubated mixture. The nonspecific binding was determined in the presence of 0.1 μM LTB4. The membranes were filtered though Whatman GF/C paper and washed triply with buffer. The radioactivity was measured by liquid scintillation spectrometry, and the specific binding of ^3 H-LTB4 to the receptor was determined.

[1] = tested on: LTB4 production in rat polymorphonuclear cells; experiment: Ex vivo inhibition of LTB4 production (LTB4 biosynthesis); assay type: cell-based; details: for IC50: Rattus norvegicus, read-out: Inh. of LTB4 biosynth., IC50; for Inh. of LTB4 biosynth., %: at 30 μg (%/μg)
Experimental: Ex vivo Inhibition of LTB4 Production The production of LTB4 was determined in rat polymorphonuclear cells from pleural exudate elicited by heat-activated rat serum (Palmer R. M. J., Salmon J. A.: Immunology 50, 65 (1983)). The cells were stimulated with the Ca ionophore A 23187 (Sigma) and incubated with various concentrations of the drugs tested. The sample containing only buffer was used for the determination of unaffected biosynthesis; the complete inhibition was measured in a sample with 100 μg of NDGA in 1 ml. LTB4 was determined in supernatant using a commercial RIA kit (Amersham).

LTD4 receptor = molecular target: T1, LTD4 receptor (Cavia porcellus, UniProt Q2NNR5); experiment: LTD4 receptor binding study; details: 3H-LTD4, guinea-pig lung membranes; for pIC50: read-out: Inh. of LTD4 rec. binding, IC50; for inhibition at 100 µM / inhibition at 20 µM: read-out: Inh. of LTD4 rec. binding, %
T1 construct: The membrane fraction was prepared from male guinea-pig lungs; from tissue; host or cells: male guinea-pig lung membranes
T1 sequence (Q2NNR5 1-340): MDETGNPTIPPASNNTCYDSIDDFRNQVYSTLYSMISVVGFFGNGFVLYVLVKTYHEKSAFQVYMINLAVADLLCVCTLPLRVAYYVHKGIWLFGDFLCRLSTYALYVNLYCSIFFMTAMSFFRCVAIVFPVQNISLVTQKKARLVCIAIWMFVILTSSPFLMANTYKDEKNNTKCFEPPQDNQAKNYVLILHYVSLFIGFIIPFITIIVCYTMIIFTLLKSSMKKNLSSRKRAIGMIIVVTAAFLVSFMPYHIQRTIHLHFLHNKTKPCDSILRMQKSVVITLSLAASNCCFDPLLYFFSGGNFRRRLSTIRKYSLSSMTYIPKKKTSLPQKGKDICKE
Experimental: LTD4 Receptor Binding Study
This study was performed according to the method of Burns and coworkers (Burns R. F. et al.: Life Sci. 33, 645 (1983)). The membrane fraction was prepared from male guinea-pig lungs, and 4 mg of this fraction were incubated with 0.4 nM ^3 H-LTD4 for 60 min at 25° C. in 100 μl of the incubated mixture. The nonspecific binding was determined in the presence of 0.1 μM LTD4. The filtration of the membranes, washing, and radioactivity measurement were as above.

male mice = experiment: Inhibition of arachidonic acid-induced ear inflammation in mice; assay type: in vivo; details: Mus musculus, po, 1 h
Experimental: Inhibition of Arachidonic Acid-induced Ear Inflammation in Mice (Opas E. E. et al.: J. Invest. Dermatol. 84, 253 (1985) Ear inflammation was induced in male mice by 20 μl of arachidonic acid dissolved in acetone (concentration 100 mg/ml). The mice were sacrificed 1 h after application of arachidonic acid and the ears were cut off by standard means. The other, vehicle-treated ear of the same animal served as a control. The degree of ear hyperemia and the weight of ear lobes were evaluated. Test compounds were administered orally 1 h before the induction of inflammation.

[2] = tested on: peroxidation of lipids from the hepatic cells membranes; experiment: Antioxidant effect in vitro; assay type: biochemical; details: at 100 μg
Excerpt: Antioxidant Effect in vitro
The end-product, malonic dialdehyde, was transformed to coloured complex with thiobarbituric acid and determined spectrophotometrically. The antioxidant effect was expressed in % of peroxidation inhibition in the presence of the compound tested in comparison to a control sample.

Wistar-Han rats = experiment: Inhibition of carrageenan edema; assay type: in vivo; details: dose 100 mg/kg; for inhibition in vivo at 100 mg/kg: Rattus norvegicus, read-out: CE: inhibition of carrageenan-induced edema, % of inh.
rats = experiment: Inhibition of carrageenan-induced pleuritis in rats; assay type: in vivo; details: for inhibition in vivo at 100 mg/kg: Rattus norvegicus, po, 4 h
Experimental: Inhibition of Carrageenan-induced Pleuritis in Rats
(Hidaka T. J.: Pharm. Pharmacol. 38, 242 (1986) 1 ml of 0.5% carrageenan solution in saline was administered intrapleurally to experimental animals under mild ether anesthesia. Test drugs were administered in single oral dose 1 h before carrageenan injection, 4 h following the carrageenan application the rats were killed and exudate was withdrawn from opened pleural cavity. The volume of exudate, its cellularity and total cell number were determined.

[3] = values with mark n: p > 0.05, read-out: Ear edema, D: edema of ear lobe, % of inh.
[4] = values with mark n: p > 0.05, read-out: Ear edema, E: hyperemia of ear lobe, % of inh.
[5] = dose 100 mg/kg, oral, values with mark n: p > 0.05, read-out: Experimental pleuritis, A: volume of exudate in pleural cavity, % of inh.
[6] = dose 100 mg/kg, oral, values with mark n: p > 0.05, read-out: Experimental pleuritis, B: number of cells, % of inh.
[7] = dose 100 mg/kg, oral, values with mark n: p > 0.05, 100 mg/kg

Chain of LTB4 receptor (H0VYV8 1-348): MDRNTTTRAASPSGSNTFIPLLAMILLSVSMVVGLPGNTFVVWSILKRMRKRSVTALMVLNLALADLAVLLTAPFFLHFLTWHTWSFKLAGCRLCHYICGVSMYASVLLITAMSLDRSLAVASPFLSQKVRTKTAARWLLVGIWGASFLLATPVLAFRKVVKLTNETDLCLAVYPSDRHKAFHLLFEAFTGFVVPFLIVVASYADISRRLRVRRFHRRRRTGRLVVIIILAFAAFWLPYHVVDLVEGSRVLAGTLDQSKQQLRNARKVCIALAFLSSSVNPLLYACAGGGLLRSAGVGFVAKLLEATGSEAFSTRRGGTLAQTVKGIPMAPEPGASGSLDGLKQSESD

inhibition at 20 µM (LTB4 receptor; at 20 μM) | IC50 [1] | pIC50 (LTD4 receptor) | inhibition at 100 µM (LTD4 receptor) | pIC50 (LTB4 receptor) | Compound | Inh. of LTB4 biosynth., % [1] | inhibition in vivo at 200 mg/kg (male mice; [3]) | inhibition in vivo at 200 mg/kg (male mice; [4]) | Antiox. effect, % of peroxidation inhibition [2] | inhibition in vivo at 100 mg/kg (Wistar-Han rats) | inhibition in vivo at 100 mg/kg (rats; [6]) | also measured
0% | 1.12 µg/mL (≈ 1.95 µM) | 7.52 | 94% |  | COc1cc(C(=O)NS(=O)(=O)c2ccccc2C)ccc1Cc1cn(C)c2ccc(NC(=O)OC3CCCC3)cc12 [Accolate, reference compound] | 98% |  |  |  |  |  | 
25% | 0.02 µg/mL (≈ 0.0414 µM) | 3.92 | 36% |  | O=C(O)c1ccccc1Sc1ccc(OCCN2CCN(Cc3ccc(Cl)cc3)CC2)cc1 [Compound 11, Hydrogenmaleate of 2-(4-(2-(1-(4-Chlorobenzyl)piperazin-4-yl)ethoxy)-phenylsulfanyl)benzoic Acid] | 97% | 22% | 0% | 10% | 33% |  | 
16% | 9.5 µg/mL (≈ 18.6 µM) | 4.48 | 86% |  | O=C(O)c1ccccc1Sc1ccc(OCCCCN2CCN(Cc3ccc(Cl)cc3)CC2)cc1 [Compound 14] | 100% |  |  |  |  |  | 
 | 12.6 µg/mL (≈ 29.3 µM) |  | 22% |  | COC(=O)c1ccccc1Sc1cccc(OCCCN2CCN(CCO)CC2)c1 [Compound 15, Bis-hydrogenmaleate of Methyl 2-(3-(3-(1-(2-hydroxyethyl)piperazin-4-yl)-propoxy)phenyl-sulfanyl)benzoate] | 88% | 7% | 3% | 0% | 9% | 15% | inhibition in vivo at 100 mg/kg (rats; [5]): 2%
 |  | 6.51 |  | 4.83 | O=C(O)c1ccc(Sc2ccc(OCc3ccc4ccccc4n3)cc2)cc1 [Compound 24, Tromethammonium salt of 4-(4-(Quinoline-2-ylmethoxy)phenylsulfanyl)benzoic Acid] | 99% |  |  | 13% |  |  | Inh. of LTB4 rec. binding, % (LTB4 receptor; at 20 μM): 42%; Inh. of LTB4 biosynth., IC50 [1]: 0.18 µg/mL; Experimental pleuritis, A: volume of exudate in pleural cavity, % of inh. (rats; [7]): 23%; Experimental pleuritis, B: number of cells, % of inh. (rats; [7]): 32%; Experimental pleuritis, C: cellularity in a volume unit, % of inh. (rats; [7]): 6%; inhibition at 20 µM (LTD4 receptor): 95%; CE: inhibition of carrageenan-induced edema, % of inh. (Wistar-Han rats): 27%
43% | 0.004 µg/mL (≈ 0.00996 µM) | 5.64 |  | 4.69 | O=C(O)Cc1ccc(Sc2ccc(OCc3ccc4ccccc4n3)cc2)cc1 [Compound 30, 4-(4-(Quinoline-2-ylmethoxy)phenylsulfanyl)phenylacetic Acid] | 94% |  |  | 14% | 41% | 30% | inhibition in vivo at 100 mg/kg (rats; [5]): 27%; inhibition in vivo at 100 mg/kg (rats; dose 100 mg/kg, oral, values with mark n: p > 0.05, read-out: Experimental pleuritis, C: cellularity in a volume unit, % of inh.): 2%; inhibition at 20 µM (LTD4 receptor): 80%
38% |  | 6.00 | 81% | 4.52 | O=C(O)Cc1ccccc1Sc1ccc(OCc2ccc3cc(Cl)ccc3n2)cc1 [Compound 32, 2-(4-(6-Chloroquinoline-2-ylmethoxy)phenylsulfanyl)phenylacetic Acid] | 62% |  |  | 14% |  |  | 

Compound | inhibition at 20 µM (LTB4 receptor; at 20 μM) | IC50 [1] | pIC50 (LTD4 receptor) | inhibition at 100 µM (LTD4 receptor) | pIC50 (LTB4 receptor) | Inh. of LTB4 biosynth., % [1] | inhibition in vivo at 200 mg/kg (male mice; [3]) | inhibition in vivo at 200 mg/kg (male mice; [4]) | Antiox. effect, % of peroxidation inhibition [2] | inhibition in vivo at 100 mg/kg (Wistar-Han rats) | inhibition in vivo at 100 mg/kg (rats; [6]) | also measured
NC(=O)N1C(=O)C(=C(O)c2cccs2)c2cc(Cl)ccc21 [Tenidap Na^+, reference compound] | 8% | 1.04 µg/mL (≈ 3.24 µM) | 3.38 | 10% |  | 100% | 14% | 76% |  | 61% | 73% | inhibition in vivo at 100 mg/kg (rats; read-out: Experimental pleuritis, A: volume of exudate in pleural cavity, % of inh.): 72%; inhibition in vivo at 100 mg/kg (rats; read-out: Experimental pleuritis, C: cellularity in a volume unit, % of inh.): 6%
